One data set concerns L-02. Kind of data set: MTT cytotoxicity assay, L-02 cells. It is filed as cell-based. As to conditions: concentration of MMC or conjugate up to 8 ugMMC/ml. As for the experimental part:
(§1) Conjugate cytotoxicity was assessed using an MTT assay. Cells (SMMC-7721, L-02, etc.) were seeded at a density of 1×10^4 cells/well […] to the assay. At the start of the experiment the culture medium was removed and the conjugate (0-2 mg/lnl in complete medium) was added (100 ul). After 4 h, MTT (20 ul; 5 mg/ml in PBS) was added and the plates re-incubated for a further 5 h. the formazan crystals were dissolved in DMSO and the absorbance read at 550 nm using a microtitre plate reader. The results were expressed as viability(%) relative to a control containing no conjugate.
On the technique in general: Tetrazolium assays rely on reduction of a dye to a coloured formazan, in cell work by metabolically active cells.

The next data set relates to SMMC-7721. Kind of data set: MTT cytotoxicity assay, SMMC-7721 cells. It is filed as cell-based. On the procedure: as §1

The results in this text go back to patent US20080306248A1, “Conjugate of Biomacromolecule with Bioreductive and Preparative Method Thereof” (priority 2005, published 2008).

Converted amounts (≈) assume the structure as drawn.

Method for Caco-2 cell monolayers: The transcellular transport of conjugate was evaluated using Caco-2 cell monolayers. Caco-2 cells were maintained in plastic culture flasks. These stock cells were subcultivated before reaching confluence. The medium consisted of Dulbecco's Modified Eagle's Medium supplemented with 10% fetal bovine serum, 1% nonessential amino acid, 2 mM L-glutamine and 100 IU/mL penicillin-10 ug/mL streptomycin. The monolayer cultures were grown in an atmosphere of 5% CO2-95% O2 at 37° C. The cells were given fresh growth medium every 2 days. When the Caco-2 cells had reached confluence, they were harvested with 0.25 mM trypsin and 0.2% EDTA (0.5-1 min at 37° C.), resuspended, and seeded into a new flask, Caco-2 cells were used between passages 45 and 60. For the transport study, Caco-2 cells were seeded at a cell density of 8×10^4 cells/cm^2 on 6-well (3-mm pores, 4.71-cm^2 growth area) Transwell™. The cell monolayers were fed a fresh growth medium every 2 days and were used at 16 to 21 days for the transport experiments. TEER was used to monitor the integrity of the monolayers. Monolayers with TEER above 350/cm^2 (after subtracting the back group value of the transwell) were used in the study.

Usually IC50 stands for the concentration needed to halve the response being measured. `CO[C@@]12[C@H](COC(N)=O)C3=C(C(=O)C(C)=C(N)C3=O)N1C[C@@H]1N[C@@H]12` [MMC, mitomycinC, reference compound]: the “viability of L-02” value in the data set on L-02 is recorded as “unchanged”. The molecule also came in with an IC50 in the data set with SMMC-7721 (Homo sapiens, SMMC-7721, viability relative to control containing no conjugate) of 1.6 µg/mL (≈ 4.79 µM).

For Fe-transferrin-MMC, in the data set with Caco-2 cell monolayers, the “transcellular transport by caco-2 cells (transport fraction)” value is 20 % of total drug. Moreover, the “viability of L-02” value in the data set on L-02 is listed as “unchanged”. The “IC50 to SMMC-7721” value in the data set with SMMC-7721 (viability relative to control containing no conjugate) is recorded as 0.5 ug MMC/ml.
